What was measured:
MDA-MB-231 = assay: Growth inhibition of human MDA-MB-231 cells after 72 hrs by CellTiter-Glo assay; format: functional; conditions: MDA-MB-231, 72 h
[1] = biological target: T1, MDR1 (ABCB1, P-glycoprotein) (Homo sapiens, UniProt P08183); assay: Activity at human MDR1 expressed in pig LLC-PK1 cells assessed as apparent permeability at 10 umol/L after 2 hrs by LC-MS/MS analysis; format: ADME, cell-based
[2] = biological target: T1, MDR1 (ABCB1, P-glycoprotein); assay: Activity at human MDR1 expressed in pig LLC-PK1 cells assessed as efflux ratio of permeability from basolateral to apical side over apical to basolateral side at 10 umol/L after 2 hrs by LC-MS/MS analysis; format: ADME, cell-based

T1 sequence (P08183 whole entry): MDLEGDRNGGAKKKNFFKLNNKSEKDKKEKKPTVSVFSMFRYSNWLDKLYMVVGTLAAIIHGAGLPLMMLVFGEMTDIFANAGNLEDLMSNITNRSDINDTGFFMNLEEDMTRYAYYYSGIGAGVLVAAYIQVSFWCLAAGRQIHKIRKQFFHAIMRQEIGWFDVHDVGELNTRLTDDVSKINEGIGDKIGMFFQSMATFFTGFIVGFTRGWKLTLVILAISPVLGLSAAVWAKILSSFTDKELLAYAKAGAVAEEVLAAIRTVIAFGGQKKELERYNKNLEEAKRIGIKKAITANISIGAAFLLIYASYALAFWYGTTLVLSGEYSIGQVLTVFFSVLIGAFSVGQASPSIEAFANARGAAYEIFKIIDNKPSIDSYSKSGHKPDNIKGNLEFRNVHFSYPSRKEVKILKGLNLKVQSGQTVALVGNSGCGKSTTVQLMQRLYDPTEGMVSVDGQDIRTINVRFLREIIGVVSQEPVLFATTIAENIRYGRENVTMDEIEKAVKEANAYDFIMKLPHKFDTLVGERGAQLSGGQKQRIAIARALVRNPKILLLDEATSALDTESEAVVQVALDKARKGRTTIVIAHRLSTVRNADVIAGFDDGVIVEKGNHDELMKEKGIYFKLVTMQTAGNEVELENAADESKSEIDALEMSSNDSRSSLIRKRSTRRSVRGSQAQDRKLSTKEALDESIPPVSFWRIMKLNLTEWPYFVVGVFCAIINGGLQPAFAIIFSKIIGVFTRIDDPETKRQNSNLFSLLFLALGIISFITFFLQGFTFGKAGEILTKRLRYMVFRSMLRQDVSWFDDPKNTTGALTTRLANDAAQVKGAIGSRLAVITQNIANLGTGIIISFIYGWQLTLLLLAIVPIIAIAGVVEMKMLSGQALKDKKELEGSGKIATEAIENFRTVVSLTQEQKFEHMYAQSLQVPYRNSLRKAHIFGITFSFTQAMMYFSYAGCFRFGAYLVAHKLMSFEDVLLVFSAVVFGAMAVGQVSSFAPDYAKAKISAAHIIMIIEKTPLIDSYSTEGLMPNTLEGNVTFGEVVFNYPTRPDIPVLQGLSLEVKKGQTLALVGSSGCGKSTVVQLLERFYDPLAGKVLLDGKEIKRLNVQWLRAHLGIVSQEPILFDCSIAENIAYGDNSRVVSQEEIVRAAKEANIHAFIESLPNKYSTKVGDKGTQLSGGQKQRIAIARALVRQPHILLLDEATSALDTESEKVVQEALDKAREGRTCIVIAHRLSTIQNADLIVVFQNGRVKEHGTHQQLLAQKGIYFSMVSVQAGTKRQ

| SMILES | GI50 (MDA-MB-231) [nM] | Papp at 2 h, 10 µM [1] [×10⁻⁶ cm/s] | efflux ratio at 2 h, 10 µM [2] |
| --- | --- | --- | --- |
| CN[C@@H](C)C(=O)N[C@H](C(=O)N1C[C@H]2CCCN2C[C@H]1C(=O)N[C@@H]1CCOc2ccccc21)C1CCCCC1 | 5.7 | 0.5 |  |
| CN[C@@H](C)C(=O)N[C@H](C(=O)N1C[C@@H]2CCCN2C[C@H]1C(=O)N[C@@H]1CCOc2ccccc21)C1CCCCC1 | 13 | 0.3 |  |
| CC[C@H](NC)C(=O)N[C@H](C(=O)N1C[C@@H]2Cc3cc(Cl)ccc3N2C[C@H]1C(=O)N[C@@H]1CCOc2ccccc21)C1CCCCC1 |  | 6.4 |  |
| CN[C@@H](C)C(=O)N[C@H](C(=O)N1C[C@H]2Cc3ccccc3N2C[C@H]1C(=O)N[C@@H]1CCOc2ccccc21)C1CCCCC1 | 15 | 4.1 |  |
| CC[C@H](NC)C(=O)N[C@H](C(=O)N1C[C@H]2CCCN2C[C@H]1C(=O)N[C@@H]1CCOc2ccccc21)C1CCCCC1 | 4.6 |  |  |
| CCO[C@@H]1C[C@@H]2CN(C(=O)[C@@H](NC(=O)[C@H](C)NC)C3CCC(F)(F)CC3)[C@H](C(=O)N[C@@H]3CCOc4ccccc43)CN2C1 |  | 0.1 | 24 |

Other lines, results leading:

| GI50 (MDA-MB-231) [nM] | Papp at 2 h, 10 µM [1] [×10⁻⁶ cm/s] | efflux ratio at 2 h, 10 µM [2] | SMILES |
| --- | --- | --- | --- |
| 1.9 | 1.4 |  | CC[C@H](NC)C(=O)N[C@H](C(=O)N1C[C@@H]2Cc3cc(C#N)ccc3N2C[C@H]1C(=O)N[C@@H]1CCOc2ccccc21)C1CCCCC1 |
| 1.8 | 2.5 |  | CC[C@H](NC)C(=O)N[C@H](C(=O)N1C[C@@H]2Cc3ccccc3N2C[C@H]1C(=O)N[C@@H]1CCOc2ccccc21)C1CCCCC1 |
| 5.9 | 7.5 |  | CC[C@H](NC)C(=O)N[C@H](C(=O)N1C[C@@H]2Cc3cc(Cl)cc(Cl)c3N2C[C@H]1C(=O)N[C@@H]1CCOc2ccccc21)C1CCCCC1 |
| 4.4 | 8.6 |  | CC[C@H](NC)C(=O)N[C@H](C(=O)N1C[C@H]2Cc3ccccc3N2C[C@H]1C(=O)N[C@@H]1CCOc2ccccc21)C1CCCCC1 |
